Type in all cases: cell-based
In one test the target is T1, human TLR7 (Homo sapiens, UniProt Q9NYK1).
T1 construct: host or cells: HEK-Blue cells
T1 sequence (Q9NYK1 27-1049): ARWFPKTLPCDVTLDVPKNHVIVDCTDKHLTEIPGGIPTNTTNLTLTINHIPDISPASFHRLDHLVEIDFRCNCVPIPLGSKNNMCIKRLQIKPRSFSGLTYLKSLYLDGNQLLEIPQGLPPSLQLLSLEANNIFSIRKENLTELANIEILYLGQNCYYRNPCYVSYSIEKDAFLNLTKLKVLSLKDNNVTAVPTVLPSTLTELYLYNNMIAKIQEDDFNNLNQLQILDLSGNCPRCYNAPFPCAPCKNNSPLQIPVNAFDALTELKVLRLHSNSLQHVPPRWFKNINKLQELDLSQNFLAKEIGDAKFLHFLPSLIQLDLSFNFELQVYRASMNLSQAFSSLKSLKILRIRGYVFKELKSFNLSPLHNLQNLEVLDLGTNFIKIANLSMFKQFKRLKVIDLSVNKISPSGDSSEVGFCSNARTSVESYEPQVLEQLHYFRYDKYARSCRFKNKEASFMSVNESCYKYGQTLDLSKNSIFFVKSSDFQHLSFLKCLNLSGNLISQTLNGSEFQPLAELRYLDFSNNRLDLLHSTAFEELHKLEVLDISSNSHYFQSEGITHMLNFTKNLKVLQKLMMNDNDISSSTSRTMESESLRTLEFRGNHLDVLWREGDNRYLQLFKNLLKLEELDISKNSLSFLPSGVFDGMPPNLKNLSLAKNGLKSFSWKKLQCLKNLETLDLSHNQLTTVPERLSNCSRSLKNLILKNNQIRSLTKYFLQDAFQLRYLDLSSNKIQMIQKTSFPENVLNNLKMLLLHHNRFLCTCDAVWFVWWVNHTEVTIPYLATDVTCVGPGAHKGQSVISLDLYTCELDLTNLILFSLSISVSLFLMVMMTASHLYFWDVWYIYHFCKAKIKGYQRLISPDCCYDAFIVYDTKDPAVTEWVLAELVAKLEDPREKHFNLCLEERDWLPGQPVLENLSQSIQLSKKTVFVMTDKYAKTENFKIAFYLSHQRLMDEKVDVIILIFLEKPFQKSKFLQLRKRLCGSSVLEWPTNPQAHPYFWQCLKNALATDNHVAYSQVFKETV
Nature of the test: TLR7 inhibition reporter assay (HEK-Blue SEAP). To be noted: HEK-Blue cells overexpressing human TLR7, stimulated with gardiquimod 7.5 μM, 22 hour incubation. The essentials: (§1)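 Cells are seeded, given test compound across 0.05 nM to 50 μM, and after 30 min at room temperature stimulated with the receptor's agonist (gardiquimod 7.5 μM, R848 15.9 μM or ODN2006 5 nM for TLR7, 8, 9). SEAP is measured after 22 h at 37 °C.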

In another test the target is T2, human TLR9 (Homo sapiens, UniProt Q9NR96).
T2 construct: host or cells: HEK-Blue cells
T2 sequence (Q9NR96 26-1032): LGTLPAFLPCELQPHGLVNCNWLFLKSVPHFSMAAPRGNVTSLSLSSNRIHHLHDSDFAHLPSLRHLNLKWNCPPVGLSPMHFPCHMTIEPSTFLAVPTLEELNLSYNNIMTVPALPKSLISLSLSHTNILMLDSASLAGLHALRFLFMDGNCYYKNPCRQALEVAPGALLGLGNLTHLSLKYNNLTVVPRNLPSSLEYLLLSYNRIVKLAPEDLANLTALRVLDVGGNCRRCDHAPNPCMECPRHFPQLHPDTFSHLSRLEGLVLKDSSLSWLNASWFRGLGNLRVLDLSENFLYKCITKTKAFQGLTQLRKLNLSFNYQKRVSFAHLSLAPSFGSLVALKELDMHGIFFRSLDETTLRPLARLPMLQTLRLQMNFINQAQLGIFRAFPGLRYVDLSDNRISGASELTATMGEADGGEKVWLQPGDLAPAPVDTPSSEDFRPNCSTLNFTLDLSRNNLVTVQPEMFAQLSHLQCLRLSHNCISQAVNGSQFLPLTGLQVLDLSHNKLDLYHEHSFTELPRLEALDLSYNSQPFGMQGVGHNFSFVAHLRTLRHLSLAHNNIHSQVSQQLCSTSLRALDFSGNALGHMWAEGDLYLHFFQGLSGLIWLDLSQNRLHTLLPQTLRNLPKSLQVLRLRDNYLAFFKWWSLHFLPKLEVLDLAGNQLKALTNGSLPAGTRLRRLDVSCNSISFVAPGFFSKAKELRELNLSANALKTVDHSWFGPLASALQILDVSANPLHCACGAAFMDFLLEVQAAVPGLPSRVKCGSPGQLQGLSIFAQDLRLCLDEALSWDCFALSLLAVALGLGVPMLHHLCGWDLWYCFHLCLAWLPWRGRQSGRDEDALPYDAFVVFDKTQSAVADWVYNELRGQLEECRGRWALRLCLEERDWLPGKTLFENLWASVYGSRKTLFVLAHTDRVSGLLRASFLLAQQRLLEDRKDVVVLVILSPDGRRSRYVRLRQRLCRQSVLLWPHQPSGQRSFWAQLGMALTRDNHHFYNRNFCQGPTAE
As to the kind of experiment: TLR9 inhibition reporter assay (HEK-Blue SEAP). Particulars: HEK-Blue cells overexpressing human TLR9, stimulated with ODN2006 5 nM, 22 hour incubation. The essentials:
as §1

The target of the next test is T3, human TLR8 (Homo sapiens, UniProt Q9NR97).
T3 construct: host or cells: HEK-Blue cells
T3 sequence (Q9NR97 27-1041): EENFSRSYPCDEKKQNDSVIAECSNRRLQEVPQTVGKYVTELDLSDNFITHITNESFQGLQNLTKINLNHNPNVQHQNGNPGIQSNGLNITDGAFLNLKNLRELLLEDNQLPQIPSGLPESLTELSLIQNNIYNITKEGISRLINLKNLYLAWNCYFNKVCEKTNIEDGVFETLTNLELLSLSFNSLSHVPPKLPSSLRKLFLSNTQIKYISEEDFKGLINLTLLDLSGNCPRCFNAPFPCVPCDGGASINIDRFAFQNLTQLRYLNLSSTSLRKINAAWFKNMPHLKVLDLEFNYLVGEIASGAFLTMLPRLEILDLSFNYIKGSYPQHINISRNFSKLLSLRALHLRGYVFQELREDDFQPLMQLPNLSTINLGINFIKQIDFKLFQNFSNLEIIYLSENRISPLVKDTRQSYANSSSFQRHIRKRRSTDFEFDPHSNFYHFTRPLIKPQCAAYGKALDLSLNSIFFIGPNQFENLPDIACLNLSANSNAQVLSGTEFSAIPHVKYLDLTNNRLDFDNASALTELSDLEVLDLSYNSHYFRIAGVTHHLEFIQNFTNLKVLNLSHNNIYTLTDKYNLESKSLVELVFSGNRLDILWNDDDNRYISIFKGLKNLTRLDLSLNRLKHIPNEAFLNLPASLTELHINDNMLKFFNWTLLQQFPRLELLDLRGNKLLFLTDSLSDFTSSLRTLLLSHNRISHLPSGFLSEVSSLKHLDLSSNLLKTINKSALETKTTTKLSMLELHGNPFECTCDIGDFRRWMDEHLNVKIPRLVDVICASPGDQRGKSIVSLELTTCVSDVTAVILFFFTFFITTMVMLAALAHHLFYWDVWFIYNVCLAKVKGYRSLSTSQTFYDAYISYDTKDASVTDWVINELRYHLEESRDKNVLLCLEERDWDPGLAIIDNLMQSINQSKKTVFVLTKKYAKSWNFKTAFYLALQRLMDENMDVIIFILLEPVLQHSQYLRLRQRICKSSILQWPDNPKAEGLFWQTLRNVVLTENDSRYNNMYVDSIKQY
Nature of the test: TLR8 inhibition reporter assay (HEK-Blue SEAP). To be noted: HEK-Blue cells overexpressing human TLR8, stimulated with R848 15.9 μM, 22 hour incubation. The gist of the method: as §1

SMILES strings stand for the structures.

These results are taken from patent US12172995B2, “Substituted indole and indazole compounds” (BRISTOL-MYERS SQUIBB COMPANY, priority 2018, dated 2024).

`Cc1cc(-c2cc3[nH]nc(C4CCN(C(=O)CN(C)C)CC4)c3cc2C(C)C)cn2ncnc12` [Example 111, 2-(dimethylamino)-1-(4-(5-isopropyl-6-(8-methyl-[1,2,4]triazolo[1,5-a]pyridin-6-yl)-1H-indazol-3-yl)piperidin-1-yl)ethan-1-one]: the values for the IC50 against human TLR7, against human TLR9 and on human TLR8 were 1.8 nM, 18600 nM and 0.5 nM, respectively.

For the compound `CCCN1CCC(c2n[nH]c3cc(-c4cc(C)c5ncnn5c4)c(C(C)C)cc23)CC1` [Example 9, 6-(5-isopropyl-3-(1-propylpiperidin-4-yl)-1H-indazol-6-yl)-8-methyl-[1,2,4]triazolo[1,5-a] pyridine], the IC50 on human TLR7 worked out at 0.5 nM; on human TLR9, 6200 nM; against human TLR8, 0.1 nM.

Regarding `Cc1cc2c(C3CCC(NCC(=O)N(C)C)CC3)n[nH]c2cc1-c1cc(C)c2ncnn2c1` (single isomer, unassigned) [Example 28, N,N-dimethyl-2-((4-(5-methyl-6-(8-methyl-[1,2,4]triazolo[1,5-a]pyridin-6-yl)-1H-indazol-3-yl)cyclohexyl)amino)acetamide], the IC50 against human TLR7 was determined as 12.4 nM; at human TLR9, 4410 nM; at human TLR8, 0.4 nM.

With `Cc1cc(-c2cc(C)c3ncnn3c2)cc2[nH]nc(C3CCCNC3)c12` (stereo not drawn) [Example 51, 8-methyl-6-(4-methyl-3-(piperidin-3-yl)-1H-indazol-6-yl)-[1,2,4]triazolo[1,5-a]pyridine], the IC50 on human TLR7 was 4.7 nM; against human TLR9 it was 287 nM; at human TLR8, 19.6 nM.

Take `Cc1cc2c(C3CCNCC3)n[nH]c2cc1-c1cc(C)c2ncnn2c1` [Example 18, 8-methyl-6-(5-methyl-3-(piperidin-4-yl)-1H-indazol-6-yl)-[1,2,4]triazolo[1,5-a]pyridine]: the values for the IC50 at human TLR7, against human TLR9 and against human TLR8 were 12.9 nM, 1500 nM and 3.3 nM, respectively.

`COc1cc(-c2ccc3c(C4CCNCC4)c[nH]c3c2)cn2ncnc12` [Example 11, 8-methoxy-6-(3-(piperidin-4-yl)-1H-indol-6-yl)-[1,2,4]triazolo[1,5-a]pyridine]: the IC50 was found to be 64.4 nM against human TLR7, 363 nM at human TLR9 and 245 nM against human TLR8.

Take `CCc1cc2c(C3CCC(N(C)C)CC3)n[nH]c2cc1-c1cc(C)c2ncnn2c1` (single isomer, unassigned) [Example 94, 4-(5-ethyl-6-(8-methyl-[1,2,4]triazolo[1,5-a]pyridin-6-yl)-1H-indazol-3-yl)-N,N-dimethylcyclohexan-1-amine]: the IC50 against human TLR7 is 3 nM; against human TLR9 it was 10300 nM; at human TLR8 it was 0.5 nM.

`Cc1cc2c(C3CCC(N(C)C4COC4)CC3)n[nH]c2cc1-c1cc(C)c2ncnn2c1` (single isomer, unassigned) [Example 33, N-methyl-N-(4-(5-methyl-6-(8-methyl-[1,2,4]triazolo[1,5-a]pyridin-6-yl)-1H-indazol-3-yl)cyclohexyl)oxetan-3-amine]: the IC50 against human TLR7 is 96.7 nM; against human TLR9, 9010 nM; against human TLR8, 3 nM.

As to `Cc1cc(-c2cc3[nH]nc(C4CCC(NCCS(C)(=O)=O)CC4)c3cc2C(C)C)cn2ncnc12` (stereo not drawn) [Example 126, 4-(5-isopropyl-6-(8-methyl-[1,2,4]triazolo[1,5-a]pyridin-6-yl)-1H-indazol-3-yl)-N-(2-(methylsulfonyl)ethyl) cyclohexan-1-amine], the IC50 at human TLR7 stood at 1.1 nM; against human TLR9, 10800 nM; against human TLR8, 0.1 nM.

For `Cc1cc2c(C3CCNCC3)n[nH]c2cc1-c1cc(C)c(=O)n(C)c1` [Example 25, 1,3-dimethyl-5-(5-methyl-3-(piperidin-4-yl)-1H-indazol-6-yl)pyridin-2(1H)-one], the IC50 against human TLR7 was found to be 263 nM; against human TLR9 it was 2240 nM; at human TLR8 it was 10.4 nM.

For `Cc1cc2c(OC3CCN(C(=O)CN(C)C)CC3)n[nH]c2cc1-c1cc(C)c2ncnn2c1` [Example 170, 2-(dimethylamino)-1-(4-((5-methyl-6-(8-methyl-[1,2,4]triazolo[1,5-a]pyridin-6-yl)-1H-indazol-3-yl)oxy)piperidin-1-yl)ethan-1-one], the IC50 came out at 13.3 nM at human TLR7, 5730 nM against human TLR9 and 3 nM against human TLR8.

`Cc1cc2c(OC3CCC(N(C)C)CC3)n[nH]c2cc1-c1cc(C)c2ncnn2c1` (single isomer, unassigned) [Example 182, N,N-dimethyl-4-((5-methyl-6-(8-methyl-[1,2,4]triazolo[1,5-a]pyridin-6-yl)-1H-indazol-3-yl)oxy)cyclohexan-1-amine]: the IC50 amounted to 25.9 nM on human TLR7, 27400 nM at human TLR9 and 5.8 nM against human TLR8.

With `Cc1cc2c(C3CCCNC3)n[nH]c2cc1-c1cc(C)c(=O)n(C)c1` (stereo not drawn) [Example 46, 1,3-dimethyl-5-(5-methyl-3-(piperidin-3-yl)-1H-indazol-6-yl)pyridin-2(1H)-one], the values for the IC50 against human TLR7, on human TLR9 and on human TLR8 were 124 nM, 1040 nM and 2.1 nM, respectively.
